Measurements: patent US8309546B2, “Morpholinopurine derivatives” (Daiichi Sankyo Company, Limited, priority 2008, dated 2012)

Columns and labels:
[1] = biological target: T1, human mTOR (His-tagged mTOR (1362C)) (Homo sapiens, UniProt P42345); test: mTOR kinase activity inhibition assay; assay type: biochemical; details: HTRF, read-out: IC50 against mTOR
T1 construct: the 1362 to 2549 amino acid portion on the C terminus side of human mTOR; His tag (N); made in house
Summary of the method: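 Crude His-tagged mTOR (aa 1362–2549) from stable HEK293 cells, with 8 μg/ml biotinylated peptide in 50 mM HEPES pH 7.5, 20 mM MnCl2; compound diluted in 20 μM ATP solution, reaction 3 h at room temperature. Phospho-peptide detected by HTRF (anti-phospho-S6K Thr389 cryptate/streptavidin-XL665, overnight at 4°C), 665/620 nm ratio. IC50 derived from curve fit of % inhibition.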

[2] = tested on: human ovary cancer cell strain IGROV1; test: Cell growth inhibition test (MTT), IGROV1; assay type: cell-based; details: IGROV-1, 72 h, IGROV1, 3 days culture, read-out: concentration exhibiting anti-cell effect (GI50)
Summary of the method: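 Living cells were counted by MTT reduction (4 h; formazan dissolved in DMSO, A540) after 3-day compound exposure at 37° C, 5% CO2. Seeding was 5000 (AN3CA), 1000 (IGROV1) or 5000 (HT29) cells/well, dosing the following day. Growth rate T/C % used pre-dose baseline; GI50 interpolated at 50%.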

[3] = tested on: human endometrial cancer cell strain AN3CA tumor; test: Anti-tumor effect assay using mouse subcutaneous transplantation model; assay type: in vivo, female nude mouse; details: AN3-CA, oral, tumor weight vs negative control, read-out: Anti-tumor effect (tumor growth inhibition rate); for inhibition in vivo at 5 mg/kg/day / inhibition in vivo at 10 mg/kg/day / inhibition in vivo at 2.5 mg/kg/day: 8 or 5 consecutive days depending on compound; for inhibition in vivo at 20 mg/kg/day: consecutive days
Method: A tumor section was prepared from a human endometrial cancer cell strain AN3CA tumor mass formed in a female nude mouse as a subcutaneously transplanted tumor and then a xenograft model was prepared by transplanting the tumor section into female nude mouse. Tumor-bearing mice having an estimated tumor volume (long diameter×short diameter×short diameter/2) of 80 to 200 mm^3 were divided, so that there should be no significant difference in the mean estimated tumor volume and body weight as compared with the negative control group to perform a test. The test compound was orally administered at a predetermined dose for 8 consecutive days. On the following day of the final administration day, tumor-bearing mice were anesthetized and exsanguinated to death and a tumor mass was isolated to measure tumor weight (the compounds of Examples 1, 3, 6, 8, 11, 12, and 14). Furthermore, as a similar test, the test compound was orally administered for 5 consecutive days, animals were sacrificed on the final administration day, and tumor weight was measured (the compounds of Examples 60, 63, 75, 77, 79, 89, 92, 107, 108, 109, 110, and 127).
In all the tests, anti-tumor effect was calculated by the following formula. {1−(tumor weight in compound treatment group/tumor weight in negative control group)}×100

T1 sequence (P42345 1362-2549): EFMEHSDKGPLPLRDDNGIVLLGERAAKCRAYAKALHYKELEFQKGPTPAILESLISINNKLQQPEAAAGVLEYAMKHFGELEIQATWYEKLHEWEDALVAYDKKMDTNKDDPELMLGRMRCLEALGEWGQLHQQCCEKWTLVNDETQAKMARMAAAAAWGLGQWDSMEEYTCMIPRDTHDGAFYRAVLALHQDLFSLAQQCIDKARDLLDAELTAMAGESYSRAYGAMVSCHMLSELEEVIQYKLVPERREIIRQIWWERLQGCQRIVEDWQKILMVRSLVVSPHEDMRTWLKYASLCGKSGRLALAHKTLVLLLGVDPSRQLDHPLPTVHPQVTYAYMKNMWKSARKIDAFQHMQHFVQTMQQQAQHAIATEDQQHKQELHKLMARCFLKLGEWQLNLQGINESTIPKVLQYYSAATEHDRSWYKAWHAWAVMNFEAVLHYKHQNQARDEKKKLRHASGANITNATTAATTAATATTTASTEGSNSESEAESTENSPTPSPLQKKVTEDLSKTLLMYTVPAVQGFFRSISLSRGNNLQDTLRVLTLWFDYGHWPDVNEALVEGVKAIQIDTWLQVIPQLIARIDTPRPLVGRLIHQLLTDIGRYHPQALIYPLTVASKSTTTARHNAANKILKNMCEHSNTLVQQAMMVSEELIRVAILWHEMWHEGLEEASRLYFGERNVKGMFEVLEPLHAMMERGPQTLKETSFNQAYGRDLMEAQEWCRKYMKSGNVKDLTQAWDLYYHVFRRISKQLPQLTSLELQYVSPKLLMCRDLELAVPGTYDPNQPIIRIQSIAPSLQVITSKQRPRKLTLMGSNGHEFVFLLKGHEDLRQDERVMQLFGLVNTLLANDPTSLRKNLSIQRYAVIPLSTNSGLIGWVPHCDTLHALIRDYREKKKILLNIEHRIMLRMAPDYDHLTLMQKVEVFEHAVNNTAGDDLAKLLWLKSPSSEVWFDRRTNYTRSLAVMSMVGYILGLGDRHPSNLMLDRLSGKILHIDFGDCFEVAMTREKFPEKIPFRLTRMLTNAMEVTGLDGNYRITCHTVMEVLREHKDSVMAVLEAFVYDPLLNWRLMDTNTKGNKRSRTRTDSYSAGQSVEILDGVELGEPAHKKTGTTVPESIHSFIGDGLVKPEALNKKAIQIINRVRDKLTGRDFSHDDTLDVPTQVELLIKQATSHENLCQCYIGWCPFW

SMILES | IC50 [1] [nM] | GI50 [2] [nM] | inhibition in vivo at 5 mg/kg/day [3] [%] | inhibition in vivo at 10 mg/kg/day [3] [%] | further results
CS(=O)(=O)N1CCN(c2nc3c(N4CCOCC4)nc(-c4cnc(N)nc4)nc3n2CC2CC2)CC1 [Example 3, 5-{9-(Cyclopropylmethyl)-8-[4-(methylsulfonyl)piperazin-1-yl]-6-morpholin-4-yl-9H-purin-2-yl}pyrimidin-2-amine] | 10 to 30 | ≤ 5000 | 75 | 86 | 
CC[C@@H]1CN(c2nc3c(N4CCOCC4)nc(-c4cnc(N)nc4)nc3n2CC(F)(F)F)CCN1C(=O)[C@H](C)O [Example 79] | < 10 | ≤ 5000 |  | 59 | inhibition in vivo at 2.5 mg/kg/day [3]: 27%
CC(C)Cn1c(N2CCN(C=O)[C@@H](C)C2)nc2c(N3CCOCC3)nc(-c3cnc(N)nc3)nc21 [Example 102, (2S)-4-[2-(2-Aminopyrimidin-5-yl)-9-isobutyl-6-morpholin-4-yl-9H-purin-8-yl]-2-methylpiperazine-1-carboaldehyde] | < 10 | ≤ 5000 | 64 |  | inhibition in vivo at 2.5 mg/kg/day [3]: 54%
CNc1ncc(-c2nc(N3CCOCC3)c3nc(N4CCN(S(C)(=O)=O)CC4)n(CC(F)(F)F)c3n2)cn1 [Example 11, N-Methyl-5-{8-[4-(methylsulfonyl)piperazin-1-yl]-6-morpholin-4-yl-9-(2,2,2-trifluoroethyl)-9H-purin-2-yl}pyrimidin-2-amine] | < 10 | ≤ 5000 | 85 |  | inhibition in vivo at 2.5 mg/kg/day [3]: 68%
CC[C@H]1CN(c2nc3c(N4CCOCC4)nc(-c4cnc(N)nc4)nc3n2CC(F)(F)F)CCN1C(=O)[C@H](C)O [Example 77, (2S)-1-{(2S)-4-[2-(2-Aminopyrimidin-5-yl)-6-morpholin-4-yl-9-(2,2,2-trifluoroethyl)-9H-purin-8-yl]-2-ethylpiperazin-1-yl}-1-oxopropan-2-ol] | 10 to 30 | ≤ 5000 |  |  | inhibition in vivo at 3.75 mg/kg/day ([3]; 120 h, 3.75 mg/kg/day, 5 consecutive days): 47%; inhibition in vivo at 15 mg/kg/day ([3]; 120 h, 15 mg/kg/day, 5 consecutive days): 84%
C[C@@H]1CN(c2nc3c(N4CCOCC4)nc(-c4cnc(N)nc4)nc3n2CC(F)(F)F)C[C@H](C)N1 [Example 14, 5-[8-(cis-3,5-Dimethylpiperazin-1-yl)-6-morpholin-4-yl-9-(2,2,2-trifluoroethyl)-9H-purin-2-yl]pyrimidin-2-amine] | 10 to 30 | ≤ 5000 | 64 | 82 | 
C[C@H](O)C(=O)N1CCN(c2nc3c(N4CCOCC4)nc(-c4cnc(N)nc4)nc3n2CC(F)(F)F)C[C@H]1C [Example 110, (2S)-1-{(2R)-4-[2-(2-Aminopyrimidin-5-yl)-6-morpholin-4-yl-9-(2,2,2-trifluoroethyl)-9H-purin-8-yl]-2-methylpiperazin-1-yl}-1-oxopropan-2-ol] | < 10 | ≤ 5000 |  |  | inhibition in vivo at 1.875 mg/kg/day ([3]; 120 h, 1.875 mg/kg/day, 5 consecutive days): 43%; inhibition in vivo at 7.5 mg/kg/day ([3]; 120 h, 7.5 mg/kg/day, 5 consecutive days): 73%
CC(=O)N1CCN(c2nc3c(N4CCOCC4)nc(-c4cnc(N)nc4)nc3n2CC2CC2)CC1 [Example 10, 5-[8-(4-Acetylpiperazin-1-yl)-9-(cyclopropylmethyl)-6-morpholin-4-yl-9H-purin-2-yl]pyrimidin-2-amine] | 10 to 30 | ≤ 5000 |  | 39 | inhibition in vivo at 20 mg/kg/day [3]: 73%
CC(C)Cn1c(N2CCN(S(C)(=O)=O)[C@@H](C)C2)nc2c(N3CCOCC3)nc(-c3cnc(N)nc3)nc21 [Example 53, 5-{9-Isobutyl-8-[(3S)-3-methyl-4-(methylsulfonyl)piperazin-1-yl]-6-morpholin-4-yl-9H-purin-2-yl}pyrimidin-2-amine] | 10 to 30 | ≤ 5000 | 45 | 68 | 
CC(=O)N1CCN(c2nc3c(N4CCOCC4)nc(-c4cnc(N)nc4)nc3n2CC(F)(F)F)C[C@H]1C [Example 60, 5-{8-[(3R)-4-Acetyl-3-methylpiperazin-1-yl]-6-morpholin-4-yl-9-(2,2,2-trifluoroethyl)-9H-purin-2-yl}pyrimidin-2-amine] | < 10 | ≤ 5000 |  |  | inhibition in vivo at 1.5 mg/kg/day ([3]; 120 h, 1.5 mg/kg/day, 5 consecutive days): 64%; inhibition in vivo at 6 mg/kg/day ([3]; 120 h, 6 mg/kg/day, 5 consecutive days): 89%
CC(C)Cn1c(N2CCN(C=O)CC2)nc2c(N3CCOCC3)nc(-c3cnc(N)nc3)nc21 [Example 90, 4-[2-(2-Aminopyrimidin-5-yl)-9-isobutyl-6-morpholin-4-yl-9H-purin-8-yl]piperazine-1-carboaldehyde] | 10 to 30 | ≤ 5000 | 40 | 80 | 

More lines, main results first:

IC50 [1] [nM] | GI50 [2] [nM] | SMILES | inhibition in vivo at 5 mg/kg/day [3] [%] | inhibition in vivo at 10 mg/kg/day [3] [%] | further results
30 to 100 | ≤ 5000 | C[C@H](O)C(=O)N1CCN(c2nc3c(N4CCOCC4)nc(-c4cnc(N)nc4)nc3n2CC2CC2)CC1 [Example 88, (2S)-1-{4-[2-(2-Aminopyrimidin-5-yl)-9-(cyclopropylmethyl)-6-morpholin-4-yl-9H-purin-8-yl]piperazin-1-yl}-1-oxopropan-2-ol] | 30 | 54 | 
< 10 | ≤ 5000 | CNc1ncc(-c2nc(N3CCOCC3)c3nc(N4CCN(C(C)=O)[C@@H](C)C4)n(CC(F)(F)F)c3n2)cn1 [Example 107, 5-{8-[(3S)-4-Acetyl-3-methylpiperazin-1-yl]-6-morpholin-4-yl-9-(2,2,2-trifluoroethyl)-9H-purin-2-yl}-N-methylpyrimidin-2-amine] | 76 |  | inhibition in vivo at 1.25 mg/kg/day ([3]; 120 h, 1.25 mg/kg/day, 5 consecutive days): 46%
10 to 30 | ≤ 5000 | CC(C)Cn1c(N2CCN(C(=O)C[C@@H](C)O)CC2)nc2c(N3CCOCC3)nc(-c3cnc(N)nc3)nc21 [Example 81, (2R)-4-{4-[2-(2-Aminopyrimidin-5-yl)-9-isobutyl-6-morpholin-4-yl-9H-purin-8-yl]piperazin-1-yl}-4-oxobutan-2-ol] | 37 | 74 | 
10 to 30 | ≤ 5000 | CC(C)Cn1c(N2CCN(C(=O)CO)CC2)nc2c(N3CCOCC3)nc(-c3cnc(N)nc3)nc21 [Example 89, 2-{4-[2-(2-Aminopyrimidin-5-yl)-9-isobutyl-6-morpholin-4-yl-9H-purin-8-yl]piperazin-1-yl}-2-oxoethanol] | 56 | 69 | 
30 to 100 | ≤ 5000 | CC(C)Cn1c(N2CCN(S(C)(=O)=O)[C@H](C)C2)nc2c(N3CCOCC3)nc(-c3cnc(N)nc3)nc21 [Example 54, 5-{9-Isobutyl-8-[(3R)-3-methyl-4-(methylsulfonyl)piperazin-1-yl]-6-morpholin-4-yl-9H-purin-2-yl}pyrimidin-2-amine] |  | 74 | inhibition in vivo at 20 mg/kg/day [3]: 82%
10 to 30 | ≤ 5000 | C[C@H](O)C(=O)N1CCN(c2nc3c(N4CCOCC4)nc(-c4cnc(N)nc4)nc3n2CC2CC2)C[C@@H]1C [Example 92, (2S)-1-{(2S)-4-[2-(2-Aminopyrimidin-5-yl)-9-(cyclopropylmethyl)-6-morpholin-4-yl-9H-purin-8-yl]-2-methylpiperazin-1-yl}-1-oxopropan-2-ol] | 52 | 61 | 
30 to 100 | ≤ 5000 | CC(C)Cn1c(N2CCN(C(=O)CN(C)C)CC2)nc2c(N3CCOCC3)nc(-c3cnc(N)nc3)nc21 [Example 55, 5-(8-{4-[(Dimethylamino)acetyl]piperazin-1-yl}-9-isobutyl-6-morpholin-4-yl-9H-purin-2-yl)pyrimidin-2-amine] |  | 32 | inhibition in vivo at 20 mg/kg/day [3]: 59%
